Assay results from patent US20110098278A1 (priority 2009, published 2011).
Several values for one entry are separate records, joined by “and”; a condition that tells them apart may be missing. Equal entries are not always repeated. Structures can show the parent of a compound that is named as a salt. Where two headings read alike, the source gives them in different places.

How the values were obtained:
[1] = molecular target: T1, human acetylcholine esterase (Homo sapiens, UniProt P22303); assay: Human acetylcholine esterase inhibition (human recombinant, HEK-293 cells; Ellman photometry); assay type: biochemical; conditions: for inhibitory action toward human acetylcholine esterase (in words): in contrast to galantamine
T1 construct: host or cells: HEK-293 cells

[2] = tested on: rabbit stomach circular smooth muscle; assay: Ex vivo rabbit stomach circular smooth muscle, electrical field stimulation; assay type: cell-based; conditions: rabbit stomach strips under EFS; 100 nM to 100 μM
Sprague Dawley rat = assay: PICA behavior (kaolin consumption) in the Sprague Dawley rat as surrogate for emesis; assay type: in vivo
Procedure: This is a well established model for this purpose in the rat (Takeda N et al (1993) 45 817-21).
Once determined, a comparison was made of the effects of these doses on kaolin consumption over a 0-96 hour period in 24 h increments.
In detail groups of 10 male Sprague Dawley rats were habituated to kaolin for 3 days, then singly housed in grid-bottomed cages and habituated for a further 2 days prior to dosing. On the day of drug administration, the animals were food-deprived for 1 h prior to dosing. […] Access to a weighed quantity of food and kaolin was then restored. Food and kaolin was weighed 24, 48, 72 and 96 h after dosing.

ferret = assay: Emetic activity (retching and vomiting) in the ferret
[3] = tested on: human stomach circular smooth muscle; assay: Ex vivo human stomach circular smooth muscle, electrical field stimulation; assay type: cell-based; conditions: human stomach strips under EFS; 100 nM to 100 μM
[4] = USP SGF pH 1.2, 37 deg. C., 0 hours
[5] = USP SGF pH 1.2, 37 deg. C., 1 hour
[6] = USP SIF pH 6.8, 37 deg. C., 0 hours
[7] = USP SIF pH 6.8, 37 deg. C., 2 hours
[8] = human recombinant (HEK-293 cells), AMTCh 50 μM, 30 min./37° C., read-out: IC50 for inhibition of human acetyl choline esterase
[9] = 40 mg/kg as base p.o., 2 hr. observation, individual ferrets
[10] = 20 mg/kg p.o., 2 hr. observation, individual ferrets, listed as Galantamine valine ester tartrate
[11] = 20 mg (free base)/kg oral or similar molar dose

T1 sequence (P22303 32-614): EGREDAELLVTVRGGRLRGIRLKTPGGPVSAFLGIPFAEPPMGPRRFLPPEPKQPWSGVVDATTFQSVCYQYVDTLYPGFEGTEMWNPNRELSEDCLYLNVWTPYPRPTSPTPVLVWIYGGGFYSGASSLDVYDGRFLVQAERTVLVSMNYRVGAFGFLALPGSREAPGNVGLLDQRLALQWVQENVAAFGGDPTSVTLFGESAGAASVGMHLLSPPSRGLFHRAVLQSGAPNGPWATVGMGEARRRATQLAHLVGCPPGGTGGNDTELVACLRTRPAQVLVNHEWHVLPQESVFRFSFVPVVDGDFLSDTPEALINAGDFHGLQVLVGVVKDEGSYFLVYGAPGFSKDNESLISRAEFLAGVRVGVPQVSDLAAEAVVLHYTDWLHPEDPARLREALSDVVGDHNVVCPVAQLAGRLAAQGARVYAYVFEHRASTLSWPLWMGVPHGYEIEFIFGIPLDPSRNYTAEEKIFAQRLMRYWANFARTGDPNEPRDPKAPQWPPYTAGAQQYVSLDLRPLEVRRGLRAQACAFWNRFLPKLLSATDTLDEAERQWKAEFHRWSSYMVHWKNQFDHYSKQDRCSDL

COc1ccc2c3c1O[C@H]1C[C@@H](OC(=O)Nc4cccc(C(=O)O)c4)C=C[C@@]31CCN(C)C2 [Galantamine meta amino benzoic acid carbamate]
% Prodrug Remaining [4]: 100%
% Prodrug Remaining [5]: 100%
% Prodrug Remaining [6]: 100%
% Prodrug Remaining [7]: 100%
IC50 [1, 8]: 26 µM

COc1ccc2c3c1O[C@H]1C[C@@H](OC(=O)NCc4ccc(C(=O)O)cc4)C=C[C@@]31CCN(C)C2 [Galantamine para-amino methyl benzoic acid carbamate]
% Prodrug Remaining [4]: 100%
% Prodrug Remaining [5]: 100%
% Prodrug Remaining [6]: 100%
% Prodrug Remaining [7]: 100%
IC50 [1, 8]: 46 µM

COc1ccc2c3c1O[C@H]1C[C@@H](OC(=O)Nc4ccc(C(=O)O)cc4)C=C[C@@]31CCN(C)C2 [Galantamine para amino benzoic acid carbamate]
% Prodrug Remaining [4]: 100-%
% Prodrug Remaining [5]: 100%
% Prodrug Remaining [6]: 100%
% Prodrug Remaining [7]: 100%
IC50 [1, 8]: 32 µM

COc1ccc2c3c1O[C@H]1C[C@@H](OC(=O)Nc4ccc(C(=O)O)cn4)C=C[C@@]31CCN(C)C2 [Galantamine para-amino nicotinic acid carbamate]
% Prodrug Remaining [4]: 100%
% Prodrug Remaining [5]: 100%
% Prodrug Remaining [6]: 100%
% Prodrug Remaining [7]: 100%
IC50 [1, 8]: 55 µM

COc1ccc2c3c1O[C@H]1C[C@@H](OC(=O)CCC(=O)N[C@H](C(=O)O)C(C)C)C=C[C@@]31CCN(C)C2.O=C(O)C(F)(F)F [Galantamine succinyl valine ester, galantamine-[succinyl-(S)-valine]ester trifluoroacetate]
stimulation of smooth muscle contractions (change in force production) [2]: complete absence of any such effect
Cumulative mean ± SD kaolin consumption (Sprague Dawley rat; 11.75 mg galantamine free base content/kg po, 24 h): 0.14 ± 0.20 g
Cumulative mean ± SD kaolin consumption (Sprague Dawley rat; 11.75 mg galantamine free base content/kg po, 48 h): 0.29 ± 0.24 g
Cumulative mean ± SD kaolin consumption (Sprague Dawley rat; 11.75 mg galantamine free base content/kg po, 72 h): 0.48 ± 0.27 g
Cumulative mean ± SD kaolin consumption (Sprague Dawley rat; 11.75 mg galantamine free base content/kg po, 96 h): 0.57 ± 0.40 g
Cumulative mean ± SD kaolin consumption (Sprague Dawley rat; 23.5 mg galantamine free base content/kg po, 24 h): 0.31 ± 0.53 g
Cumulative mean ± SD kaolin consumption (Sprague Dawley rat; 23.5 mg galantamine free base content/kg po, 48 h): 0.61 ± 0.69 g
Cumulative mean ± SD kaolin consumption (Sprague Dawley rat; 23.5 mg galantamine free base content/kg po, 72 h): 0.95 ± 0.96 g
Cumulative mean ± SD kaolin consumption (Sprague Dawley rat; 23.5 mg galantamine free base content/kg po, 96 h): 1.25 ± 1.31 g
Cumulative mean ± SD kaolin consumption (Sprague Dawley rat; 47 mg galantamine free base content/kg po, 24 h): 0.15 ± 0.18 g
Cumulative mean ± SD kaolin consumption (Sprague Dawley rat; 47 mg galantamine free base content/kg po, 48 h): 0.40 ± 0.18 g
Cumulative mean ± SD kaolin consumption (Sprague Dawley rat; 47 mg galantamine free base content/kg po, 72 h): 0.63 ± 0.28 g
Cumulative mean ± SD kaolin consumption (Sprague Dawley rat; 47 mg galantamine free base content/kg po, 96 h): 0.91 ± 0.45 g
Cumulative mean ± SD kaolin consumption (Sprague Dawley rat; 47 mg galantamine free base content/kg po, 96 h, listed as GSVE): 0.91 ± 0.45 g
kaolin consumption compared with vehicle alone (in words) (Sprague Dawley rat; oral, up to 47 mg (galantamine free base content)/kg): little evidence for any increase in kaolin consumption
IC50 [1]: > 100 µM
inhibitory action toward human acetylcholine esterase (in words) [1]: significantly less inhibitory actions
Time (min) to onset of: Retching (ferret; [9]): >120 min
Time (min) to onset of: Vomiting (ferret; [9]): >120 min
Total number of individual incidences of: Retching (ferret; [9]): 0
Total number of individual incidences of: Vomiting (ferret; [9]): 0
Time (min) to onset of: Retching (ferret; 40 mg/kg as base p.o., Mean): >120 min
Time (min) to onset of: Vomiting (ferret; 40 mg/kg as base p.o., Mean): >120 min
Total number of individual incidences of: Retching (ferret; 40 mg/kg as base p.o., Mean): 0
Total number of individual incidences of: Vomiting (ferret; 40 mg/kg as base p.o., Mean): 0
retching or vomiting (in words) (ferret; oral 40 mg galantamine (free base equivs)/kg): no retching or vomiting at all was observed
stimulation of smooth muscle contractions (change in force production) [3]: complete absence of any such effect

COc1ccc2c3c1O[C@H]1C[C@@H](OC(=O)[C@@H](N)C(C)C)C=C[C@@]31CCN(C)C2 [Galantamine-(S)-valine ester, galantamine-(S)-valine ester tartrate]
Total number of individual incidences of: Retching (ferret; 20 mg/kg p.o. (galantamine free base content), 2 hr. observation, individual ferrets, listed as Galantamine valine ester tartrate): 22 and 0 (6×) and 2 (2×) and 3 and 14
Total number of individual incidences of: Retching (ferret; 20 mg/kg p.o., 2 hr. observation, Mean): 3.9
Time (min) to onset of: Retching (ferret; [10]): 35 min and >120 min (6×) and 106 min and 11 min and 9 min and 6 min
Time (min) to onset of: Vomiting (ferret; [10]): 44 min and >120 min (9×) and 9 min
Total number of individual incidences of: Vomiting (ferret; [10]): 1 and 0 (9×) and 3

galantamine-(S)-valine ester tartrate
animals dosed that retched (ferret; [11]): 45%
animals dosed that vomited (ferret; [11]): 18%

galantamine (glutaryl-PABA) ester trifluoroacetate [Galantamine [glutaryl-PABA] ester]
% Prodrug Remaining (FaSSIF (pH 6.5), 37 deg. C., 0 hours): 96%
% Prodrug Remaining (FaSSIF (pH 6.5), 37 deg. C., 2 hour): 86%
% Prodrug Remaining (FeSSIF (pH 6.5), 37 deg. C., 0 hours): 85%
% Prodrug Remaining (FeSSIF (pH 6.5), 37 deg. C., 2 hours): 90%

COc1ccc2c3c1O[C@H]1C[C@@H](OC(=O)N[C@@H](Cc4ccccc4)C(=O)O)C=C[C@@]31CCN(C)C2 [Galantamine phenylalanine carbamate, galantamine-(S)-phenylalanine carbamate trifluoroacetate]
% Prodrug Remaining [4]: 94.7%
% Prodrug Remaining [5]: 94.7%
% Prodrug Remaining [6]: 95.9%
% Prodrug Remaining [7]: 95.6%

COc1ccc2c3c1O[C@H]1C[C@@H](OC(=O)CCCC(=O)Nc4ccc(C(=O)O)cc4)C=C[C@@]31CCN(C)C2 [Galantamine [glutaryl-PABA] ester, galantamine (glutaryl-PABA) ester trifluoroacetate]
IC50 [1]: > 100 µM
inhibitory action toward human acetylcholine esterase (in words) [1]: significantly less inhibitory actions

[Cl-].[Li+] [LiCl]
Cumulative mean ± SD kaolin consumption (Sprague Dawley rat; positive control, 130 mg base/kg po, 24 h): 3.33 ± 1.98 g
Cumulative mean ± SD kaolin consumption (Sprague Dawley rat; positive control, 130 mg base/kg po, 48 h): 3.71 ± 2.22 g
Cumulative mean ± SD kaolin consumption (Sprague Dawley rat; positive control, 130 mg base/kg po, 72 h): 4.42 ± 2.82 g
Cumulative mean ± SD kaolin consumption (Sprague Dawley rat; positive control, 130 mg base/kg po, 96 h): 4.82 ± 3.11 g
